{"source": "patent US4871766A", "about": "“Oil-in-water pesticidal emulsion” (priority 1986, dated 1989)", "key": {"[1]": {"experiment": "Solubility of active ingredient in hydrocarbon at 0° C.", "type": "physicochemical"}, "[2]": {"experiment": "Behaviour of active ingredient on storage at 0° C.", "type": "physicochemical", "conditions": "stored at 0° C. for a long time"}}}
{"molecule": "CCC(C)c1ccccc1OC(=O)NC", "note": "(stereo not drawn) [active ingredient (a), 2-Sec-butylphenyl N--methylcarbamate]", "values": [{"measurement": "solubility in the hydrocarbon (5)", "setting": "[1]; hydrocarbon (5)", "result": "≥ 50", "unit": "wt. %"}]}
{"molecule": "CC1(C)C(C=C(Cl)Cl)C1C(=O)OC(C#N)c1cccc(Oc2ccccc2)c1", "note": "(stereo not drawn) [active ingredient (b), α-Cyano-3-phenoxybenzyl 3-(2,2-dichlorovinyl)-2,2-dimethylcyclopropanecarboxylate]", "values": [{"measurement": "crystallization of the active ingredient on storage", "setting": "[2]", "result": "crystallizes in part"}]}
{"molecule": "CC1(C)C(C=C(Cl)Cl)C1C(=O)OCc1cccc(Oc2ccccc2)c1", "note": "(stereo not drawn) [active ingredient (d), 3-Phenoxybenzyl 3-(2,2-dichlorovinyl)-2,2-dimethylcyclopropanecarboxylate]", "values": [{"measurement": "solubility in the hydrocarbon (4)", "setting": "[1]; hydrocarbon (4)", "result": "≥ 50", "unit": "wt. %"}]}
{"molecule": "CC1(C)C(C(=O)OC(C#N)c2cccc(Oc3ccccc3)c2)C1(C)C", "note": "(stereo not drawn) [active ingredient (e), α-Cyano-3-phenoxybenzyl 2,2,3,3-tetramethylcyclopropanecarboxylate]", "values": [{"measurement": "solubility in the hydrocarbon (3)", "setting": "[1]", "result": "≥ 50", "unit": "wt. %"}]}
{"molecule": "CC(C)C(C(=O)OC(C#N)c1cccc(Oc2ccccc2)c1)c1ccc(Cl)cc1", "note": "(stereo not drawn) [active ingredient (f), α-Cyano-3-phenoxybenzyl 2-(4-chlorophenyl)-3-methylbutyrate]", "values": [{"measurement": "solubility in the hydrocarbon (3)", "setting": "[1]", "result": "≥ 50", "unit": "wt. %"}]}
{"molecule": "CC(COc1ccc(Oc2ccccc2)cc1)Oc1ccccn1", "note": "(stereo not drawn) [active ingredient (h), 2-{1-Methyl-2-(4-phenoxyphenoxy)ethoxy}pyridine]", "values": [{"measurement": "solubility in the hydrocarbon (6)", "setting": "[1]; hydrocarbon (6)", "result": 10, "unit": "wt. %"}]}
